Reference: ChEMBL document CHEMBL3997845, “Identification of a novel hormone sensitive lipase inhibitor with a reduced potential of reactive metabolites formation” (Bioorg Med Chem, 2017)
The source made the active and inactive calls. No cut-off for these calls is given here.

Tests used:
Liver = assay: Drug level in human liver microsomes treated with 2-(4-(5-(trifluoromethyl)pyridin-2-yloxy)benzyloxy)phenylboronic acid at 500 uM after 60 mins in presence of [13C2,15N-Gly]GSH and NADPH generating system by LC-MS/MS analysis; format: ADME, microsome; conditions: 1 h
Rattus norvegicus [1] = assay: Antilipolytic activity in Wistar rat assessed as reduction in plasma glycerol AUC (0 to 7 hrs) at 10 mg/kg, po; format: functional, organism-based
[2] = Cmax in Wistar rat at 3 mg/kg, po by LC-MS/MS analysis; format: ADME, organism-based; parameters: dose 3 mg/kg, route oral; conditions: in vivo
[3] = AUC (0 to 7 hrs) in Wistar rat at 3 mg/kg, po by LC-MS/MS analysis; format: ADME, organism-based; parameters: dose 3 mg/kg, time < 7 hr, route oral; conditions: in vivo
Rattus norvegicus [4] = assay: Antilipolytic activity in Wistar rat assessed as reduction in plasma glycerol AUC (0 to 7 hrs) at 3 mg/kg, po relative to control; format: functional; parameters: scale not given: the % may be the effect or the level left
[5] = Metabolic stability in rat liver microsomes assessed as parent compound remaining at 1 uM after 30 mins in presence of NADPH generating system by LC-MS/MS analysis; format: ADME, microsome; conditions: read-out: Stability

Q: For O=C(O)CNC(=O)C1CSC(c2ccc(Oc3ccc(C(F)(F)F)cn3)cc2)N1 (stereo unspecified), which Drug metabolism (Liver) is on record?
A: The Drug metabolism was “Metabolite_Detected”.

Q: Which Activity (Rattus norvegicus [1]) does the source give for O=C(Oc1ccc(Oc2ccc(C(F)(F)F)cn2)cc1)N1CCC(O)CC1 here?
A: Its Activity is “Active”.

Q: With O=C(Nc1ccc(Cl)cc1B(O)O)c1ccc(Oc2ccc(C(F)(F)F)cc2)nc1 as the compound, how does the Cmax [2] read?
A: The Cmax was 3350 ng/mL.

Q: What about the AUC(0-t) at 7 h [3] of the same compound?
A: The AUC(0-t) at 7 h was 19600 ng·h/mL.

Q: What about the Activity (Rattus norvegicus [4]) of the same compound?
A: Its Activity is 17%.

Q: And the remaining at 0.5 h, 1 µM [5]?
A: Its remaining at 0.5 h, 1 µM is 81%.
